Data as given in article PMC7037732, “Synthesis of Combretastatin A-4 and 3′-Aminocombretastatin A-4 derivatives with Aminoacid Containing Pendants and Study of their Interaction with Tubulin and as Downregulators of the VEGF, hTERT and c-Myc Gene Expression” (Molecules, 2020).

Key:
[1] = system: HT-29 (human colon adenocarcinoma); assay: Inhibition of cell proliferation (MTT), HT-29; format: cell-based; conditions: Homo sapiens, 48 h of treatment (footnote), average ±SD of three experiments
[2] = system: MCF-7 (breast adenocarcinoma); assay: Inhibition of cell proliferation (MTT), MCF-7; format: cell-based, human; conditions: Homo sapiens, 48 h of treatment (footnote), average ±SD of three experiments
[3] = system: A-549 (human pulmonary adenocarcinoma); assay: Inhibition of cell proliferation (MTT), A-549; format: cell-based; conditions: 48 h of treatment (footnote), average ±SD of three experiments
Summary of the method: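 Antiproliferative activity against A-549 human pulmonary adenocarcinoma cells was measured by MTT assay. Cells were seeded at 25,000/mL in 96-well plates, cultured 24 h, then exposed to compounds at various concentrations. MTT (20 µL, 5 mg·mL^−1) was added for 2 h at 37 °C, formazan dissolved in 200 µL DMSO, and absorbance read at 540 nm. IC50 values came graphically from three independent experiments.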

[4] = system: HEK-293 (human embryonic kidney cells); assay: Inhibition of cell proliferation (MTT), nontumor HEK-293; format: cell-based; conditions: Homo sapiens, 48 h of treatment (footnote), average ±SD of three experiments
A-549 cells [5] = assay: Cell cycle distribution by flow cytometry; format: cell-based, human; conditions: A-549, 24 h; for cells accumulated in the G2/M phase: concentration per compound as in Tables 6 and 7, control 14%
Summary of the method: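 A-549 cells were harvested, fixed in cold 70% ethanol (30 min, −20 °C), then stained with 50 µg/mL propidium iodide plus 100 µg/mL RNase A in PBS for 20 min at room temperature in the dark. Flow cytometry used 488 nm excitation and 620 nm emission, giving the percentage of cells in G2/M.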

A-549 cells [6] = assay: Effect on the cellular microtubule network (immunofluorescence); format: cell-based, human
Protocol: The effect on the cellular microtubule network of CA-4 derivatives was studied for compounds 1, 3.7 (L-Thr-OMe), 3.8 (L-Tyr-OMe), 4.2 (L-Val) and 4.3 (L-Leu), which were those accumulating more cells in the G2/M phase. Thus, A-549 cells were incubated for 24 h in the presence of the above compounds and CA-4 at the concentrations indicated in Figure 4.
The effect of some derivatives on the cellular microtubule network were also studied on A-549 cells. The selected compounds were 7.1 (Fmoc-Gly) (0.5 μM), 8.1 (Gly) (2 μM), 8.2 (L-Ala) (3 μM) and 10.1 (D-Val) (40 μM), which were those exerting a higher effect on the cell cycle.
For immunofluorescence microscopy of the microtubule network, 10^6 cells were plated on cover glass and incubated with the different drugs. Cells were then fixed in 3.7% formaldehyde (in PBS pH 7.4) for 20 min at room temperature and permeabilized with PBS-Triton X-100 0.5% for 10 min at room temperature. Direct immunostaining was carried out for 2 h at room temperature with a primary FITC-conjugated anti-α-tubulin antibody (dilution 1:400 in PBS-BSA 1% from a 1 mg/mL solution; monoclonal antibody, clone DM1A; Sigma-Aldrich, Darmstadt, Germany.). Next, cells were incubated for 45 min at room temperature in darkness with secondary Alexa Fluor 488-conjugated antibodies (dilution 1:200 each from 1.5 mg/mL; Molecular Probe, France). Then, cells were washed in PBS and cover glasses were mounted with a drop of ProLong® antifade solution (Invitrogen). The cytoskeleton was imaged by a confocal laser scanning microscope (CLSM) Leica SP5 with a Leica inverted microscope, equipped with a Plan-Apochromat 63× oil immersion objective (NA = 1.4). Each image was recorded with the CLSM’s spectral mode selecting specific domains of the emission spectrum. The FITC fluorophore was excited at 488 nm with an argon laser, and its fluorescence emission was collected between 496 nm and 535 nm.

purified tubulin = assay: Critical concentration (CrC) for the assembly of purified tubulin in GAB; format: biochemical; conditions: compound 27.5 μM, tubulin 25 μM, glycerol (GAB) and GTP assembly buffer; control 7.9 ± 1.2
Protocol: The effect on the self-assembly of tubulin was determined by measuring the critical concentration (CrC).

tubulin = assay: In vitro tubulin polymerization by turbidimetry (It50); format: biochemical; conditions: turbidimetry at 350 nm, 37 °C; control 16.6 ± 1.0
Protocol: Figure 3 also includes polymerization curves in the presence of CA-4, AmCA-4 and paclitaxel. This test was also performed using paclitaxel, a microtubule stabilizing agent, as a control for the complete formation of microtubules (see Figure 3).

[7] = Homo sapiens, A549, 48 h, Table 1

COC(=O)[C@H](Cc1ccc(O)cc1)NC(=O)COc1cc(/C=C\c2cc(OC)c(OC)c(OC)c2)ccc1OC [Compound 3.8]
IC50 ([1]; HT-29, 48 h, Table 1): 16 ± 5 µM
IC50 ([2]; MCF7, 48 h, Table 1): 12 ± 4 µM
IC50 [3, 7]: 18 ± 1 µM
IC50 ([4]; HEK293, 48 h, Table 1): 10 ± 2 µM
G0/G1 (A-549 cells [5]; 75 μM): 17 ± 2%
G2/M (A-549 cells [5]; 75 μM): 65 ± 1%
S (A-549 cells [5]; 75 μM): 18 ± 1%
cells accumulated in the G2/M phase (A-549 cells [5]): 50–70%
Effect on the microtubule network (A-549 cells [6]; A-549, 24 h, 75 μM): produce disorganization in the mitotic spindle

CCOC(=O)COc1cc(/C=C\c2cc(OC)c(OC)c(OC)c2)ccc1OC [Compound 1, Ethyl (Z)-2-(2-methoxy-5-(3,4,5-trimethoxystyryl)phenoxy)acetate]
IC50 ([1]; HT-29, 48 h, Table 1): 7 ± 4 µM
IC50 ([2]; MCF7, 48 h, Table 1): 8 ± 4 µM
IC50 [3, 7]: < 10 µM
IC50 ([3]; Table 1): 9 ± 1 µM
IC50 ([4]; HEK293, 48 h, Table 1): 3.6 ± 0.5 µM
G0/G1 (A-549 cells [5]; 50 μM): 23 ± 5%
G2/M (A-549 cells [5]; 50 μM): 55 ± 8%
S (A-549 cells [5]; 50 μM): 22 ± 4%
cells accumulated in the G2/M phase (A-549 cells [5]): 50–70%
Effect on the microtubule network (A-549 cells [6]; A-549, 24 h, 50 μM): produce disorganization in the mitotic spindle

COc1ccc(/C=C\c2cc(OC)c(OC)c(OC)c2)cc1OCC(=O)N[C@@H](CC(C)C)C(=O)O [Compound 4.3]
IC50 ([1]; HT-29, 48 h, Table 1): 15 ± 5 µM
IC50 ([2]; MCF7, 48 h, Table 1): 16 ± 6 µM
IC50 [3, 7]: 14 ± 2 µM
IC50 ([4]; HEK293, 48 h, Table 1): 9 ± 2 µM
CrC (critical concentration) (purified tubulin): 8 ± 3 µM
G0/G1 (A-549 cells [5]; 75 μM): 22 ± 6%
G2/M (A-549 cells [5]; 75 μM): 63 ± 5%
S (A-549 cells [5]; 75 μM): 15 ± 2%
cells accumulated in the G2/M phase (A-549 cells [5]): 50–70%
Effect on the microtubule network (A-549 cells [6]; A-549, 24 h, 50 μM): produce disorganization in the mitotic spindle

COC(=O)[C@@H](NC(=O)COc1cc(/C=C\c2cc(OC)c(OC)c(OC)c2)ccc1OC)C(C)O (some centres unmarked) [Compound 3.7]
IC50 ([1]; HT-29, 48 h, Table 1): 18 ± 7 µM
IC50 ([2]; MCF7, 48 h, Table 1): 12 ± 4 µM
IC50 [3, 7]: 19 ± 1 µM
IC50 ([4]; HEK293, 48 h, Table 1): 14 ± 2 µM
CrC (critical concentration) (purified tubulin): 10 ± 3 µM
G0/G1 (A-549 cells [5]; 75 μM): 25 ± 5%
G2/M (A-549 cells [5]; 75 μM): 57 ± 6%
S (A-549 cells [5]; 75 μM): 18 ± 1%
cells accumulated in the G2/M phase (A-549 cells [5]): 50–70%
Effect on the microtubule network (A-549 cells [6]; A-549, 24 h, 75 μM): produce disorganization in the mitotic spindle

COc1ccc(/C=C\c2cc(OC)c(OC)c(OC)c2)cc1OCC(=O)O [Compound 2, (Z)-2-(2-Methoxy-5-(3,4,5-trimethoxystyryl)phenoxy)acetic acid]
IC50 ([1]; HT-29, Table 1): 33 ± 6 µM
IC50 ([2]; MCF7, Table 1): 11 ± 5 µM
IC50 [3, 7]: 38 ± 5 µM
IC50 ([4]; HEK293, Table 1): 12 ± 5 µM
CrC (critical concentration) (purified tubulin): 12.0 ± 0.7 µM
melting point: 109 to 111 °C

COc1ccc(/C=C\c2cc(OC)c(OC)c(OC)c2)cc1OCC(=O)N[C@@H](Cc1ccccc1)C(=O)O [Compound 4.4]
IC50 ([1]; HT-29, Table 1): 54 ± 9 µM
IC50 ([2]; MCF7, Table 1): 45 ± 4 µM
IC50 [3, 7]: 100 ± 20 µM
IC50 ([4]; HEK293, Table 1): 47 ± 3 µM
CrC (critical concentration) (purified tubulin): 11.4 ± 0.7 µM
Effect on the microtubule network (A-549 cells [6]; A-549, 24 h, 50 μM): produce disorganization in the mitotic spindle

COc1ccc(/C=C\c2cc(OC)c(OC)c(OC)c2)cc1NC(=O)[C@H](N)C(C)C [Compound 10.1]
IC50 ([1]; HT-29, 48 h, Table 2): 4.8 ± 0.6 µM
IC50 ([2]; MCF7, 48 h, Table 2): 4.7 ± 0.7 µM
IC50 ([3]; Homo sapiens, A549, 48 h, Table 2): 9.9 ± 1.3 µM
IC50 ([4]; HEK293, 48 h, Table 2): 2.4 ± 0.3 µM
CrC (critical concentration) (purified tubulin): 12.8 ± 0.3 µM
It50 (time required to reach 50% of the polymerization) (tubulin): 17.1 ± 1.3 min
G0/G1 (A-549 cells [5]; 40 µM): 26 ± 2%
G2/M (A-549 cells [5]; 40 µM): 60 ± 1%
S (A-549 cells [5]; 40 µM): 14 ± 1%
Effect on the microtubule network (A-549 cells [6]; A-549, 0.5 μM): much less active
Effect on the microtubule network (A-549 cells [6]; A-549, 40 μM): almost total depolymerization of the microtubule network
